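Assay format: 96-well plates, 48-hour exposure. At the GI50, growth is halved.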 Activity calls are given as the source filed them. No stated cut-off is given here; in the data, active = GI50 up to about 1.1 µM and inactive = higher.
Assays:
Assay in all cases: NCI-60 cell line screen, 48 h
[1] = test system: DLD-1
[2] = test system: DMS-114
[3] = test system: DMS-273
[4] = test system: HOP-18
[5] = test system: LXFL 529
[6] = test system: M19-MEL
[7] = test system: RXF 631
[8] = test system: SNB-78
[9] = test system: XF498

Row | SMILES | GI50 [1] | GI50 [2] | GI50 [3] | GI50 [4] | GI50 [5] | GI50 [6] | GI50 [7] | GI50 [8] | GI50 [9]
1 | O=C(O)c1ccc([I+]c2ccccc2)cc1 | > 100 µM (inactive) | > 100 µM (inactive) | > 100 µM (inactive) | > 100 µM (inactive) | > 100 µM (inactive) | > 100 µM (inactive) | > 100 µM (inactive) | > 100 µM (inactive) | > 100 µM (inactive)
2 | COc1ccc(C[C@@H]2Cc3cc(OC)c(OC)cc3CN2C)cc1 | > 100 µM (inactive) | – | – | – | > 100 µM (inactive) | – | – | > 100 µM (inactive) | 53.5 µM (inactive)
3 | O=S(=O)(OI(OI(OS(=O)(=O)C(F)(F)F)c1ccccc1)c1ccccc1)C(F)(F)F | 58.9 µM (inactive) | 5.18 µM (inactive) | 23.7 µM (inactive) | – | 26.1 µM (inactive) | 40.7 µM (inactive) | – | 50.6 µM (inactive) | –
4 | Cc1ccc(C2=CC(=O)c3ccccc3C2=O)n1-c1ccccc1 | > 100 µM (inactive) | 24.6 µM (inactive) | > 100 µM (inactive) | > 100 µM (inactive) | 72.4 µM (inactive) | > 100 µM (inactive) | – | > 100 µM (inactive) | 48.1 µM (inactive)
5 | CN(C)c1ccc2c(NCCCCCCNc3ccnc4cc(N(C)C)ccc34)ccnc2c1 | 43.7 µM (inactive) | 6.75 µM (inactive) | 4.03 µM (inactive) | – | – | 13.7 µM (inactive) | 51.4 µM (inactive) | 4.79 µM (inactive) | 2.79 µM (inactive)
6 | COC(=O)/C(C#N)=C1\CCC(C(=O)OC)N1C (configuration not stated) | > 100 µM (inactive) | > 100 µM (inactive) | > 100 µM (inactive) | – | – | > 100 µM (inactive) | > 100 µM (inactive) | > 100 µM (inactive) | > 100 µM (inactive)
7 | CC(/C(=N/NC(=O)C(N)=O)c1c(Cl)ccc(Cl)c1O)C1(O)C(=O)Nc2ccccc21 (configuration not stated) | 35.3 µM (inactive) | 34.4 µM (inactive) | 27.4 µM (inactive) | 34.8 µM (inactive) | 32.9 µM (inactive) | 40.4 µM (inactive) | 32.1 µM (inactive) | > 100 µM (inactive) | –
8 | O=c1c2cc(Br)ccc2nc(-c2ccccc2Cl)n1NCC1(O)OCC(O)C(O)C1O (configuration not stated) | – | 75.9 µM (inactive) | > 100 µM (inactive) | – | 82.8 µM (inactive) | > 100 µM (inactive) | – | > 100 µM (inactive) | –
9 | Cc1cccc(N2C(=O)C(=O)C(c3nc4ccccc4s3)/C(=N/NC(=S)NN)C2=O)c1C (configuration not stated) | – | > 100 µM (inactive) | > 100 µM (inactive) | – | > 100 µM (inactive) | > 100 µM (inactive) | > 100 µM (inactive) | > 100 µM (inactive) | > 100 µM (inactive)
10 | COc1c(C(=O)c2ccc([N+](=O)[O-])cc2)cc(C(C)(C)C)cc1C(C)(C)C | 54 µM (inactive) | 22.1 µM (inactive) | 30.2 µM (inactive) | > 100 µM (inactive) | 31.6 µM (inactive) | 30.1 µM (inactive) | – | 46.6 µM (inactive) | 22.2 µM (inactive)
11 | CCCCC1(C)C=C/C(=C2/C(=O)O/C(=C\C(=O)O)C2=O)O1 (configuration not stated) | – | – | > 100 µM (inactive) | > 100 µM (inactive) | > 100 µM (inactive) | > 100 µM (inactive) | > 100 µM (inactive) | > 100 µM (inactive) | > 100 µM (inactive)
12 | COc1cc(OC(=O)c2ccccc2)cc2c1C(=O)C=CC2=O | 15.4 µM (inactive) | 10.9 µM (inactive) | 21.8 µM (inactive) | 16.6 µM (inactive) | 12.7 µM (inactive) | 11 µM (inactive) | 20 µM (inactive) | 20.5 µM (inactive) | 17.6 µM (inactive)
13 | Cc1cccc(C)c1CO | > 100 µM (inactive) | > 100 µM (inactive) | > 100 µM (inactive) | – | > 100 µM (inactive) | > 100 µM (inactive) | > 100 µM (inactive) | > 100 µM (inactive) | > 100 µM (inactive)
14 | OCc1c[te]c(-c2ccccc2)c1 | 37.2 µM (inactive) | 26.8 µM (inactive) | 51.4 µM (inactive) | – | > 100 µM (inactive) | 33.9 µM (inactive) | 55.6 µM (inactive) | > 100 µM (inactive) | 0.56 µM (active)
15 | C(=N\Nc1ccccc1)/c1nc2ccccc2nc1/C=N/Nc1ccccc1 | 11.3 µM (inactive) | – | – | – | 11 µM (inactive) | 20.7 µM (inactive) | 13.6 µM (inactive) | 20.7 µM (inactive) | –
16 | COc1cc(C2C(C(=O)Nc3ccccc3)=C(C)NC(C)=C2C(=O)Nc2ccccc2)ccc1O | 29.1 µM (inactive) | 42 µM (inactive) | – | 99.3 µM (inactive) | 24.3 µM (inactive) | 36.2 µM (inactive) | – | 53.5 µM (inactive) | 34.2 µM (inactive)
17 | O=C1C=CC(=O)c2cc(Sc3ccccc3)c(=O)c(Sc3ccccc3)cc21 | 56.4 µM (inactive) | 22.2 µM (inactive) | > 100 µM (inactive) | 71.8 µM (inactive) | 26.1 µM (inactive) | 48.5 µM (inactive) | – | – | 86.3 µM (inactive)
18 | CCCCCC/C(CC(=O)CCC(=O)NCCc1ccccc1)=N\Nc1ccc([N+](=O)[O-])cc1[N+](=O)[O-] | 63.7 µM (inactive) | 20 µM (inactive) | > 100 µM (inactive) | 59.8 µM (inactive) | 49.3 µM (inactive) | 54.5 µM (inactive) | 64.6 µM (inactive) | > 100 µM (inactive) | –
19 | COC(=O)C1=C(O)C(O)=C(C(=O)OC)CC1 | > 100 µM (inactive) | > 100 µM (inactive) | > 100 µM (inactive) | > 100 µM (inactive) | > 100 µM (inactive) | > 100 µM (inactive) | – | > 100 µM (inactive) | > 100 µM (inactive)
20 | CN(C)c1ccc(-c2cc(O)c3cc4c(cc3n2)OCO4)cc1 | > 100 µM (inactive) | > 100 µM (inactive) | > 100 µM (inactive) | – | > 100 µM (inactive) | > 100 µM (inactive) | > 100 µM (inactive) | – | > 100 µM (inactive)
21 | C=CCC1(CC)C(=O)NC(=O)NC1=O [ETALLOBARBITAL] | – | – | > 100 µM (inactive) | – | > 100 µM (inactive) | > 100 µM (inactive) | – | > 100 µM (inactive) | –
